Measurements reported in ChEMBL document CHEMBL5136985, “Natural and synthetic β-carboline as a privileged antifungal scaﬀolds” (Eur J Med Chem, 2022).
Converted amounts (≈) assume the structure as drawn.

What was measured:
Bipolaris oryzae [1] = assay: Antifungal activity against Helminthosporium oryzae assessed as inhibition of growth rate at 100 ug/ml by disc diffusion method relative to control; format: functional
Aspergillus niger = assay: Antifungal activity against Aspergillus niger assessed as inhibition of growth rate at 100 ug/ml by disc diffusion method relative to control; format: functional
Botrytis cinerea = assay: Antifungal activity against Botrytis cinerea; format: functional, organism-based
Gaeumannomyces graminis = assay: Antifungal activity against Gaeumannomyces graminis; format: functional, organism-based
Saccharomyces cerevisiae [2] = assay: Antifungal activity against Saccharomyces cerevisiae assessed as diameter of zone inhibition at 100 ug per disk incubated for 24 hrs; format: functional; conditions: read-out: DIZ
[3] = system: Colletotrichum gloeosporioides; assay: Antifungal activity against Colletotrichum gloeosporioides assessed as diameter of zone inhibition at 100 ug per disk incubated for 24 hrs; format: functional; conditions: read-out: DIZ
Phyllosticta citricarpa = assay: Antifungal activity Phyllosticta citricarpa against assessed as diameter of zone inhibition at 100 ug per disk incubated for 24 hrs; format: functional; conditions: read-out: DIZ
Candida albicans [4] = assay: Antifungal activity against Candida albicans incubated for 24 hrs by well diffusion method; format: functional
Candida albicans [5] = assay: Antifungal activity against Candida albicans; format: functional, organism-based; conditions: Candida albicans
Candida albicans [6] = assay: Antifungal activity against Candida albicans incubated for 24 hrs by TTC staining method; format: functional
Sclerotinia [7] = assay: Antifungal activity against sunflower Sclerotinia rot at 50 ug/ml relative to control; format: functional; conditions: dose 50 µg/ml
Sclerotinia [8] = assay: Antifungal activity against rape Sclerotinia rot at 50 ug/ml relative to control; format: functional; conditions: Sclerotinia
[9] = system: Trichophyton interdigitale; assay: Antifungal activity against Trichophyton interdigitale; format: functional
Metarhizium anisopliae = assay: Antifungal activity against Metarhizium anisopliae assessed as reduction of growth rate relative to control; format: functional; parameters: scale not given: the % may be the effect or the level left
Phytophthora litchii = assay: Antifungal activity against Phytophthora litchii assessed as inhibition of growth rate at 100 mg/L relative to control; format: functional
[10] = system: Botryosphaeria berengeriana; assay: Antifungal activity against Physalospora pyricola relative to control; format: functional
Bipolaris maydis [11] = assay: Antifungal activity against Bipolaris maydis assessed as inhibition rate of fungal growth at 50 mg/kg relative to control; format: functional
[12] = system: Botryosphaeria berengeriana; assay: Antifungal activity against Physalospora pyricola assessed as inhibition rate of fungal growth at 50 mg/kg relative to control; format: functional
Bipolaris oryzae [13] = assay: Antifungal activity against Bipolaris oryzae incubated for 7 days; format: functional; conditions: 168 h, time 7 day
Curvularia lunata = assay: Antifungal activity against Curvularia lunata; format: functional, organism-based
Alternaria solani [14] = assay: Antifungal activity against Alternaria solani relative to control; format: functional; parameters: concentration or dose not given beside the values
Bipolaris maydis [15] = assay: Antifungal activity against Bipolaris maydis relative to control; format: functional; parameters: concentration or dose not given beside the values
Candida albicans [16] = assay: Antifungal activity against Candida albicans incubated for 72 hrs; format: functional
Fusarium solani [17] = assay: Antifungal activity against Fusarium solani relative to control; format: functional
Fusarium solani [18] = assay: Antifungal activity against Fusarium solani incubated for 72 hrs; format: functional, organism-based; conditions: for inhibition (INH): time 72 hrs; for EC50: Fusarium solani, 72 h
Mucor hiemalis = assay: Antifungal activity against Mucor hiemalis by 96-well plate method; format: functional
Bipolaris oryzae [19] = assay: Antifungal activity against Bipolaris oryzae; format: functional, organism-based
Nakaseomyces glabratus = assay: Antifungal activity against Candida glabrata; format: functional
Candida parapsilosis = assay: Antifungal activity against Candida parapsilosis; format: functional; conditions: Lodderomyces parapsilosis
Candida tropicalis = assay: Antifungal activity against Candida tropicalis; format: functional
Kluyveromyces marxianus = assay: Antifungal activity against Candida kefyr; format: functional
Pichia kudriavzevii = assay: Antifungal activity against Candida krusei; format: functional
Cryptococcus neoformans [20] = assay: Antifungal activity against Cryptococcus neoformans; format: functional
Alternaria solani [21] = assay: Antifungal activity against Alternaria solani assessed as inhibition rate of fungal growth at 50 mg/kg relative to control; format: functional
[22] = system: Cryptococcus deuterogattii; assay: Antifungal activity against Cryptococcus gattii VGII incubated for 24 to 48 hrs by 96-well plate method; format: functional, Cryptococcus gattii species complex; conditions: time 24-48 hrs
Cryptococcus neoformans [23] = assay: Antifungal activity against Cryptococcus neoformans incubated for 24 to 48 hrs by 96-well plate method; format: functional; conditions: time 24-48 hrs
Candida albicans [24] = assay: Antifungal activity against Candida albicans incubated for 24 to 48 hrs by 96-well plate method; format: functional; conditions: time 24-48 hrs
Saccharomyces cerevisiae [25] = assay: Antifungal activity against Saccharomyces cerevisiae; format: functional
Alternaria brassicae = assay: Antifungal activity against Alternaria brassicae; format: functional
Alternaria alternata = assay: Antifungal activity against Alternaria alternata; format: functional
Cytospora mali = assay: Antifungal activity against Valsa mali; format: functional
[26] = system: Colletotrichum gloeosporioides; assay: Antifungal activity against Colletotrichum gloeosporioides; format: functional

## COC1=CC(=O)C[C@@H](C)[C@]12Oc1c(Cl)c(OC)cc(OC)c1C2=O [GRISEOFULVIN]
Bipolaris oryzae [1]
  inhibition at 100 µg/mL: 20.4%
Aspergillus niger
  inhibition at 100 µg/mL: 20.3%

## COC(=O)c1cc2c([nH]c3ccccc32)c(C(N)=O)n1
Botrytis cinerea
  EC50: 14.2 µM
Gaeumannomyces graminis
  EC50: 450 nM

## NC(=O)c1cc2c([nH]c3ccccc32)c(-c2ccccn2)n1
Gaeumannomyces graminis
  EC50: 2850 nM

## C=Cc1nc(C(=O)O)cc2c1[nH]c1ccccc12
Saccharomyces cerevisiae [2]
  zone of inhibition at 100 µg/disc: 9 mm
[3]
  zone of inhibition at 100 µg/disc: 16 mm
Phyllosticta citricarpa
  zone of inhibition at 100 µg/disc: 17 mm

## C=CCCCCCCCCCOC(=O)c1cc2c([nH]c3ccccc32)c(-c2ccc(OC)cc2)n1
Candida albicans [4]
  MIC: 8.6 µg/mL (≈ 18.3 µM)
Candida albicans [5]
  MIC: 8.6 µg/mL (≈ 18.3 µM)

## O=[N+]([O-])c1cccc(-c2nc(-c3n[nH]c(=S)o3)cc3c2[nH]c2ccccc23)c1
Candida albicans [6]
  MIC: 3.1 µg/mL (≈ 7.96 µM)

## CO/C=C(/C(=O)OC)c1ccccc1Oc1cc(Oc2ccccc2C#N)ncn1 [AZOXYSTROBIN]
Sclerotinia [7]
  Activity: 88.07%
Sclerotinia [8]
  inhibition at 50 µg/mL: 88.5%

## c1ccc2c(c1)[nH]c1cnccc12 [NORHARMANE]
[9]
  MIC: 100 µg/mL (≈ 595 µM)
Metarhizium anisopliae
  Activity: 11.9%

## O=C(Nc1ccccn1)c1cc2c([nH]c3ccccc32)c(-c2ccccc2)n1
Phytophthora litchii
  inhibition at 100 µg/mL: 95.9%

## COCC(=O)N(c1c(C)cccc1C)C(C)C(=O)OC (stereo not given) [METALAXYL]
Phytophthora litchii
  inhibition at 100 µg/mL: 93.4%

## Clc1ccc(COC(Cn2ccnc2)c2ccc(Cl)cc2Cl)c(Cl)c1 (stereo not given) [MICONAZOLE]
Candida albicans [4]
  MIC: 7.8 µg/mL (≈ 18.7 µM)

## CC1NC(C(=O)N/N=C/c2ccc(Cl)c(Cl)c2)Cc2c1[nH]c1ccccc21 (stereo not given)
[10]
  Activity: 97%
Bipolaris maydis [11]
  inhibition in vivo at 50 mg/kg: 80%
[12]
  inhibition in vivo at 50 mg/kg: 97%

## COc1cc(C2NCCc3c2[nH]c2ccccc32)ccc1O (stereo not given)
Bipolaris oryzae [1]
  inhibition at 100 µg/mL: 22.4%
Aspergillus niger
  inhibition at 100 µg/mL: 21.6%

## CCCCCCCCN1CCc2c([nH]c3ccccc23)C1
Bipolaris oryzae [13]
  MIC: 28 µg/mL (≈ 98.4 µM)

## CCCCCn1c2ccccc2c2cc(C)ncc21
Curvularia lunata
  EC50: 13.8 µg/mL (≈ 54.7 µM)

## COc1ccc2c(c1)[nH]c1c(C)nccc12 [HARMINE]
Alternaria solani [14]
  Activity: 15.7%
Bipolaris maydis [15]
  Activity: 22.7%
Candida albicans [16]
  MIC: 500 µg/mL (≈ 2360 µM)

## CC(C)c1nc(C(N)=O)cc2c1[nH]c1ccccc12
Gaeumannomyces graminis
  EC50: 2850 nM

## CC(=O)Oc1ccc2c(c1)c1ccnc3ccc(=O)n2c31
Fusarium solani [17]
  Activity: 86%
Fusarium solani [18]
  inhibition (INH): 86%

## COC(=O)c1cc2c([nH]c3ccccc32)c(C(=O)OC)n1
Gaeumannomyces graminis
  EC50: 1160 nM

## CC(C)CCCC(=O)c1nc(C(=O)O)cc2c1[nH]c1ccccc12
Mucor hiemalis
  MIC: 8.3 µg/mL (≈ 25.6 µM)

## c1ccc2[nH]c(-c3cscn3)nc2c1 [THIABENDAZOLE]
Fusarium solani [18]
  EC50: 12.5 µM
  inhibition (INH): 89.3%

## Cc1cc2c3ccccc3n(C(C)C)c2cn1
Curvularia lunata
  EC50: 4.23 µg/mL (≈ 18.9 µM)

## CC1=NCCc2c1[nH]c1cc(O)ccc21 [HARMALOL]
Candida albicans [16]
  MIC: 750 µg/mL (≈ 3750 µM)

## CCCCCN1CCc2c([nH]c3ccccc23)C1
Bipolaris oryzae [19]
  EC50: 110 µg/mL (≈ 454 µM)

## Oc1ccccc1C1NCCc2c1[nH]c1ccccc21 (stereo not given)
Bipolaris oryzae [1]
  inhibition at 100 µg/mL: 19.8%
Aspergillus niger
  inhibition at 100 µg/mL: 21.2%

## CCCCCCCC[C@H]1N[C@H](C(=O)OC)Cc2c1[nH]c1ccccc21
Nakaseomyces glabratus
  MIC: 3.67 µg/mL (≈ 10.7 µM)
Candida parapsilosis
  MIC: 14.8 µg/mL (≈ 43.2 µM)
Candida tropicalis
  MIC: 7.41 µg/mL (≈ 21.6 µM)
Candida albicans [5]
  MIC: 14.8 µg/mL (≈ 43.2 µM)
Kluyveromyces marxianus
  MIC: 3.67 µg/mL (≈ 10.7 µM)
Pichia kudriavzevii
  MIC: 7.41 µg/mL (≈ 21.6 µM)
Cryptococcus neoformans [20]
  MIC: 7.41 µg/mL (≈ 21.6 µM)

## Cc1nc(/C=C/C(=O)O)cc2c1[nH]c1ccccc12
Bipolaris maydis [11]
  inhibition in vivo at 50 mg/kg: 9.8%
Alternaria solani [21]
  inhibition in vivo at 50 mg/kg: 10.5%
Bipolaris maydis [15]
  Activity: 9.8%

## C#CCn1c2ccccc2c2cc(C)ncc21
Curvularia lunata
  EC50: 6.73 µg/mL (≈ 30.6 µM)

## C=CCCCCCCCCCOC(=O)c1cc2c([nH]c3ccccc32)c(-c2ccc(O)cc2)n1
Candida albicans [4]
  MIC: 2.8 µg/mL (≈ 6.13 µM)
Candida albicans [5]
  MIC: 2.8 µg/mL (≈ 6.13 µM)

## COc1ccc2c3c([nH]c2c1)C(C)=NCC3 [HARMALINE]
Candida albicans [16]
  MIC: 666 µg/mL (≈ 3110 µM)

## CN(C)c1ccc(C2NCCc3c2[nH]c2ccccc32)cc1 (stereo not given)
Bipolaris oryzae [1]
  inhibition at 100 µg/mL: 21.6%
Aspergillus niger
  inhibition at 100 µg/mL: 20.8%

## Cc1nccc2c1[nH]c1c([N+](=O)[O-])cccc12
Alternaria solani [14]
  Activity: 88.9%
[22]
  MIC: 40 µg/mL (≈ 176 µM)
Cryptococcus neoformans [23]
  MIC: 40 µg/mL (≈ 176 µM)
Bipolaris maydis [15]
  Activity: 94.7%
Candida albicans [24]
  MIC: 40 µg/mL (≈ 176 µM)

## CCCCCCCC[C@@H]1N[C@H](C(=O)OC)Cc2c1[nH]c1ccccc21
Nakaseomyces glabratus
  MIC: 23.7 µg/mL (≈ 69.1 µM)
Candida parapsilosis
  MIC: > 94.7 µg/mL
Candida tropicalis
  MIC: > 94.7 µg/mL
Candida albicans [5]
  MIC: > 94.7 µg/mL
Kluyveromyces marxianus
  MIC: 23.7 µg/mL (≈ 69.1 µM)
Pichia kudriavzevii
  MIC: > 94.7 µg/mL
Cryptococcus neoformans [20]
  MIC: 14.8 µg/mL (≈ 43.2 µM)

## CC(=O)N1CCN(c2ccc(OCC3COC(Cn4ccnc4)(c4ccc(Cl)cc4Cl)O3)cc2)CC1 (stereo not given) [KETOCONAZOLE]
Saccharomyces cerevisiae [25]
  MIC: 2.5 µg/mL (≈ 4.7 µM)
Alternaria brassicae
  MIC: 12.5 µg/mL (≈ 23.5 µM)
Alternaria alternata
  MIC: 12.5 µg/mL (≈ 23.5 µM)
Cytospora mali
  MIC: 12.5 µg/mL (≈ 23.5 µM)
[26]
  MIC: 12.5 µg/mL (≈ 23.5 µM)

## COC(=O)Nc1nc2ccccc2[nH]1 [CARBENDAZIM]
Sclerotinia [7]
  Activity: 89.77%
Fusarium solani [18]
  EC50: 4.34 µM
